Results: PubChem BioAssay (NCI)
Where “and” joins values, the source holds several entries; their conditions need not be identical. Equal entries are not always repeated.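 Protocol summary: plate cells (96-well), add compound at 5 concentrations, incubate 48 h, interpolate endpoints linearly. GI50 marks 50% less growth. The concentration for full growth arrest is given as TGI.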

Columns and labels:
Assay in all cases: DTP human tumour cell line panel, 48 h
SN12C renal = system: SN12C renal
OVCAR-8 ovarian = system: OVCAR-8 ovarian
HL-60(TB) leukemia = system: HL-60(TB) leukemia
HOP-62 NSCLC = system: HOP-62 NSCLC
HOP-92 NSCLC = system: HOP-92 NSCLC
NCI-H226 lung = system: NCI-H226 lung
PC-3 prostate = system: PC-3 prostate
SK-MEL-2 melanoma = system: SK-MEL-2 melanoma

SMILES	GI50 (SN12C renal)	TGI (SN12C renal)	GI50 (OVCAR-8 ovarian)	TGI (OVCAR-8 ovarian)	GI50 (HL-60(TB) leukemia)	TGI (HL-60(TB) leukemia)	GI50 (HOP-62 NSCLC)	TGI (HOP-62 NSCLC)	GI50 (HOP-92 NSCLC)	TGI (HOP-92 NSCLC)	GI50 (NCI-H226 lung)	TGI (NCI-H226 lung)	GI50 (PC-3 prostate)	TGI (PC-3 prostate)	GI50 (SK-MEL-2 melanoma)	TGI (SK-MEL-2 melanoma)
O=P(O)(O)OCC1OC(n2cnc3c(NCc4ccco4)ncnc32)C(O)C1O (stereo not drawn)	0.989 µM	> 37.2 µM	0.861 µM	6.9 µM	0.231 µM	0.601 µM	2.24 µM	19.4 µM	1.36 µM	13.4 µM	7.13 µM	> 56.5 µM	0.927 µM	12.3 µM	11.1 µM	> 50.7 µM
C=C(C)[C@@H]1CC[C@]2(COCCCNCCCN)CC[C@]3(C)[C@H](CC[C@@H]4[C@@]5(C)CC[C@H](OCCCN)C(C)(C)[C@@H]5CC[C@]43C)[C@@H]12	0.867 µM	1.62 µM	0.903 µM	1.72 µM	2.12 µM	8.33 µM	0.831 µM	1.62 µM	2.1 µM	9.76 µM	1.04 µM	2.34 µM	0.874 µM	1.72 µM	6.86 µM	13.8 µM
O=c1cc(-c2ccccc2)oc2ccc(OC/C(=N/O)c3ccc(F)cc3)cc12	6.59 µM	14.5 µM	8.44 µM	> 50 µM	1.97 µM	13.9 µM	8.79 µM	> 50 µM	11.4 µM	41.5 µM	13.6 µM	> 50 µM	2.72 µM	12.3 µM	12.3 µM	> 50 µM
O=C1CSC(c2ccc(-c3nc4ccccc4[nH]3)cc2)=N1	> 50 µM	> 50 µM	23 µM	> 50 µM	> 50 µM	> 50 µM	> 50 µM	> 50 µM	> 50 µM	> 50 µM	–	–	> 50 µM	> 50 µM	19 µM	> 50 µM
COc1cccc(OC(=O)c2ccc(C(F)(F)F)nc2Nc2c(C)cccc2Cl)c1	21.4 µM	64.3 µM	19.5 µM	46.3 µM	–	–	25.9 µM	82.3 µM	17.6 µM	41.4 µM	47.7 µM	> 100 µM	20 µM	47.1 µM	19.4 µM	45.9 µM
CCN(CC)CCC(=O)OC1C(C)=CC(C)C(=O)CC(C(C)CC2CCC(O)C(OC)C2)OC(=O)C2CCCCN2C(=O)C(=O)[C@@]2(O)OC(CCC2C)CC(OC)\C(C)=C/C=C/C=C/C(C)CC(C)C(=O)C1OC (stereo partly drawn)	–	21.1 µM	–	22.5 µM	–	16 µM	–	21.1 µM	–	21.9 µM	–	26.8 µM	–	22.4 µM	–	18.9 µM
Nc1ncnc2c1c(-c1ccc(Oc3ccccc3)cc1)nn2C[C@H]1SSC[C@@H]1O	1.36 µM	13.2 µM	0.523 µM	15.9 µM	1.52 µM	4.84 µM	0.26 µM	3.15 µM	1.62 µM	7.15 µM	1.73 µM	5.15 µM	3.01 µM	18.2 µM	0.262 µM	2.33 µM
COc1cc2c3c(n(CCCCNC(=O)OC(C)(C)C)c(=O)c2cc1OC)-c1cc2c(cc1C3=O)OCO2	78 µM	> 100 µM	> 100 µM	> 100 µM	–	–	28.1 µM	> 100 µM	60.3 µM	> 100 µM	> 100 µM	> 100 µM	> 100 µM	> 100 µM	> 100 µM	> 100 µM
Oc1[nH]c(N=C2N=c3ccccc3=N2)c2ccccc12	12.8 µM	36.7 µM	11.4 µM	46.4 µM	13.7 µM	52.9 µM	10.1 µM	22.9 µM	15 µM	49 µM	10.4 µM	30 µM	6.34 µM	73.8 µM	11.1 µM	29.7 µM
CC(=O)O[C@@]12CO[C@@H]1C[C@H](O)[C@@]1(C)C(=O)[C@H](O)C3=C(C)[C@@H](OC(=O)[C@H](O)[C@@H](NC(=O)OC(C)(C)C)c4ccccc4)C[C@@](O)([C@@H](OC(=O)c4ccccc4)C12)C3(C)C (stereo partly drawn)	< 0.005 µM	50 µM	< 0.005 µM	50 µM	< 0.005 µM	0.0241 µM and 0.0348 µM	< 0.005 µM	50 µM and > 100 µM	< 0.005 µM and 0.0181 µM	17.1 µM and 8.9 µM	12.8 µM	> 100 µM	< 0.005 µM and 0.0218 µM	50 µM and 80.8 µM	0.0355 µM	> 100 µM
CN(C)C[C@H]1CCn2c(c(C3=C(c4cn(C)c5ccccc45)C(=O)NC3=O)c3ccccc32)C1	4.39 µM	9.66 µM	5.6 µM	13.2 µM	5.65 µM	11.3 µM	4.57 µM	8.58 µM	4.19 µM	10.9 µM	5.13 µM	14.1 µM	3.92 µM	8.56 µM	4.97 µM	9.23 µM
O=C1Nc2ccccc2/C1=C\c1cccc(/C=C2/C(=O)Nc3ccccc32)n1	0.357 µM	1.36 µM	0.3 µM	1.13 µM	0.452 µM	–	1.96 µM	3.92 µM	1.48 µM	4.49 µM	1.53 µM	5.13 µM	0.654 µM	3.31 µM	0.631 µM	1.62 µM
CN(C)c1ccc(C(=N)c2ccc(N(C)C)cc2)cc1	6.32 µM and 6.04 µM	> 100 µM	3.79 µM and 3.55 µM	19.1 µM and 28.1 µM	3.3 µM	14.8 µM	5.11 µM and 2.96 µM	39.6 µM and 20.5 µM	0.942 µM and 1.52 µM	6.24 µM and 8.69 µM	7.81 µM and 9.07 µM	51.6 µM and 47.2 µM	3.75 µM and 3.74 µM	36.2 µM and > 100 µM	2.24 µM and 3.92 µM	8.35 µM and 16.7 µM
CCOc1cc(C(=O)O)c2c(ccc3ccc(OC)c(OC)c32)c1OC	–	> 100 µM	–	> 100 µM	–	> 100 µM	–	> 100 µM	–	> 100 µM	–	> 100 µM	–	> 100 µM	–	> 100 µM
COc1cc(OC)cc(-c2nc3sccn3c2/C=N/N=C(N)N)c1	7 µM	13.6 µM	9.85 µM	20.8 µM	–	–	9.95 µM	17 µM	–	–	6.96 µM	14.8 µM	9.23 µM	16.2 µM	16.7 µM	> 50 µM
